Experimental data: ChEMBL document CHEMBL5532701 (RSC Med Chem, 2024)
In brackets after ≈: the same amount, converted by molar mass.

Assays:
Haemophilus influenzae = experiment: Antibacterial activity against Haemophilus influenzae ATCC 43095 assessed as reduction in bacterial growth incubated for 20 hrs; format: functional
[1] = molecular target: T1, 1-deoxy-D-xylulose-5-phosphate synthase (Haemophilus influenzae (strain 86-028NP), UniProt Q4QKG6); experiment: Inhibition of Haemophilus influenzae recombinant DXPS
T1 sequence (Q4QKG6 whole entry): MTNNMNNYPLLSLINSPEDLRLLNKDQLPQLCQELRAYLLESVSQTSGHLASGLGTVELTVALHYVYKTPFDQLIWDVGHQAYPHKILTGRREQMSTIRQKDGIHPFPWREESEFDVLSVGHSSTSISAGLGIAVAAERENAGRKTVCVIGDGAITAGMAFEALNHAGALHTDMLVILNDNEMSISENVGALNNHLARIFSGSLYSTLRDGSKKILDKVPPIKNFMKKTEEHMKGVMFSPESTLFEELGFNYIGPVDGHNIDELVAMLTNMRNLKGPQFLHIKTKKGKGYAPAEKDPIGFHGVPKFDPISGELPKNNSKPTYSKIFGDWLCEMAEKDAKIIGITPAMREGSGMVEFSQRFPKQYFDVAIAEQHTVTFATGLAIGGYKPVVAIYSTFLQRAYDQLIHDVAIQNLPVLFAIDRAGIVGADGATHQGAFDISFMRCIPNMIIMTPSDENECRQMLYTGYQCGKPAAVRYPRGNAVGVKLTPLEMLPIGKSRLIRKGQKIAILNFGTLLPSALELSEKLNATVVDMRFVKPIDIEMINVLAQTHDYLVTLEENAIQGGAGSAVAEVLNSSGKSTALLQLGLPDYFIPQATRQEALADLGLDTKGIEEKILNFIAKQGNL

[2] = Inhibition of N-terminal his-tagged Chlamydomonas DXPS
Escherichia coli = experiment: Antibacterial activity against Escherichia coli W3110 assessed as reduction in bacterial growth incubated for 20 hrs; format: functional
HFF = experiment: Cytotoxicity against human HFF cells assessed as inhibition of cell proliferation upto 1000 uM incubated for 96 hrs by SYBR-safe assay; format: toxicity, cell-based
[3] = Permeability of the compound assessed as absorbed fraction incubated for 10 hrs by PAMPA assay; format: ADME

Structure (SMILES) | MIC (Haemophilus influenzae) [µM] | IC50 [1] [µM] | IC50 [2] [µM] | MIC (Escherichia coli) [µM] | Activity (HFF) | permeability [3] [%]
CC(C)(C(=O)O)C(=O)N(O)Cc1ccccc1Cl | 117 (≈ 31.8 µg/mL) | – | – | – | – | –
CC1(C)C(=O)ON(Cc2ccccc2Cl)C1=O [KETOCLOMAZONE] | 31 (≈ 7.86 µg/mL) | 28 | 100 | 3100 (≈ 786 µg/mL) | Non-Toxic | 47
